Test results from patent US11274332B2, “Methods of administering 3,4-diaminopyridine” (SERB SA, priority 2011, dated 2022).

Assay: Example 18: safety and tolerability in slow and fast acetylators
Type: in vivo, human
Source text: The primary objective of the study was to assess the safety and tolerability of 3,4-DAP phosphate after single and multiple doses. The secondary objectives of the study were • Part 1 only: To determine the dose-related PK profile of amifampridine and of 3-N-acetyl amifampridine after single, escalating doses of 3,4-DAP phosphate • Part 2 only: To assess the steady-state plasma PK and accumulation of amifampridine and of 3-N-acetyl amifampridine over multiple days of dosing with 3,4-DAP phosphate An exploratory objective was to examine the overall activity of the N-acetyl transferase enzymes on the metabolism of amifampridine by assessing the PK of amifampridine and 3-N-acetyl amifampridine with phenotypic acetylation activity and genotyping determination of NAT2 gene polymorphisms. Study Design and Plan
Part 1 was a dose-proportionality study in 12 healthy subjects each receiving 4 ascending single oral doses of 3,4-DAP phosphate in a sequential manner (5 mg, 10 mg, 20 mg, and 30 mg). For all 12 subjects, the first 3 doses of oral 3,4-DAP phosphate (5-20 mg) were administered on 3 consecutive days (Days 1-3). Two fast and two slow acetylators (as defined by a caffeine challenge test in Example 15a) were selected as the first 4 enrolled subjects (sentinel subjects). For the 2 fast acetylators the 30 mg dose was administered on Day 4. […] Safety and tolerability data collected for all 4 subjects were reviewed and the safety and tolerability results of the 30 mg dose for these 4 sentinel subjects were acceptable. The 30 mg dose was given to the remaining 8 non-sentinel subjects on Day 7. Sentinel and non-sentinel subjects were released from the clinic on Day 5, Day 6, and Day 8 respectively, with all subjects returning for follow-tip assessments 2-4 days following their last dose.
Part 2, Group 1: Four sentinel subjects were selected after determining their acetylator status. Two were fast acetylators and two were slow acetylators. All four were dosed on Day 1 with 4 oral doses of 20 mg of 34-DAP phosphate (given at 4-hour dosing intervals). On Days […] and 2, safety and tolerability data was collected. Subjects left the clinic on Day 2. The safety and tolerability data collected for these 4 sentinel subjects were reviewed. The safety and tolerability results of Days 1 and 2 for these subjects were acceptable and thus Part 2 Group 2 was commenced. Minimally acceptable safety was defined as the absence of clinical seizure activity. Subjects in Group 1 returned to the clinic for their follow-up assessments 2-4 days following their last dose.
Each subject was given a final morning dose of 20 mg 3,4-DAP phosphate on Day 4. Subjects in Group 2 returned to the clinic for their follow-up assessments 2-4 days following their last dose.
Safety assessments: During the assessment period, the following safety measures were evaluated: vital signs, adverse events (AEs), 12-lead ECG, EEG and clinical laboratory tests.
Safety: Safety was assessed by the incidence of AEs, as well as changes in vital signs, 12-lead ECG, EEG, and clinical laboratory evaluations.
Safety: All subjects who received any amount of study drug in either Part 1 or Part 2 of this study and had post-dose safety information were included in the safety analyses. Safety was evaluated separately for Part 1 and Part 2 and was summarized by dose levels where appropriate. All verbatim AE terms were coded using Medical Dictionary for Regulatory Activities (MedDRA) terminology. Only treatment-emergent AEs (i.e., AEs with a start date on or after the first dose of study drug) were summarized. The incidence of AEs and SAEs were summarized for each study part by dose level, system, organ, class, preferred term, relationship to study drug, and severity. No deaths during the study, no discontinuations of study drug, and no withdrawals from the study and study drug due to an AE were observed.

Nc1ccncc1N.O=P(O)(O)O [amifampridine phosphate, 3,4-diaminopyridine phosphate]
seizures (Part 1, 30 mg dose, sentinel subjects): No seizures were seen
phenotype in which drug-related adverse events were observed (Part 1, single doses 5-30 mg): observed in slow acetylators only
drug-related adverse events: % of subjects (Part 2, fast acetylators (7)): 43%
drug-related adverse events: events (Part 2, fast acetylators (7)): six
drug-related adverse events: subjects (Part 2, fast acetylators (7)): 3
drug-related adverse events: % of subjects (Part 2, slow acetylators (7)): 86%
drug-related adverse events: events (Part 2, slow acetylators (7)): Forty-five
drug-related adverse events: subjects (Part 2, slow acetylators (7)): 6
seizures (Part 2 Group 1, 20 mg x 4 on Day 1): No seizures occurred
serious adverse events (Parts 1 and 2): no serious adverse events
severity of treatment-emergent adverse events (Parts 1 and 2): mild and transient
